In PubChem BioAssay AID1033 (Sanford-Burnham Center for Chemical Genomics, 2008):
Active and inactive are the calls of the source. The rule behind the calls is not given here.

Target: Chaperone protein DnaK (Escherichia coli (strain K12)) (UniProt P0A6Y8)
Assay: binders of DnaK substrate-binding domain, biophysical, NMR, chaperone (AID 1033)
Conditions: Purified DnaK SBD, NMR ligand binding

Chain of Chaperone protein DnaK (Escherichia coli (strain K12)) (P0A6Y8 whole entry, looked up, the tested form may be a part): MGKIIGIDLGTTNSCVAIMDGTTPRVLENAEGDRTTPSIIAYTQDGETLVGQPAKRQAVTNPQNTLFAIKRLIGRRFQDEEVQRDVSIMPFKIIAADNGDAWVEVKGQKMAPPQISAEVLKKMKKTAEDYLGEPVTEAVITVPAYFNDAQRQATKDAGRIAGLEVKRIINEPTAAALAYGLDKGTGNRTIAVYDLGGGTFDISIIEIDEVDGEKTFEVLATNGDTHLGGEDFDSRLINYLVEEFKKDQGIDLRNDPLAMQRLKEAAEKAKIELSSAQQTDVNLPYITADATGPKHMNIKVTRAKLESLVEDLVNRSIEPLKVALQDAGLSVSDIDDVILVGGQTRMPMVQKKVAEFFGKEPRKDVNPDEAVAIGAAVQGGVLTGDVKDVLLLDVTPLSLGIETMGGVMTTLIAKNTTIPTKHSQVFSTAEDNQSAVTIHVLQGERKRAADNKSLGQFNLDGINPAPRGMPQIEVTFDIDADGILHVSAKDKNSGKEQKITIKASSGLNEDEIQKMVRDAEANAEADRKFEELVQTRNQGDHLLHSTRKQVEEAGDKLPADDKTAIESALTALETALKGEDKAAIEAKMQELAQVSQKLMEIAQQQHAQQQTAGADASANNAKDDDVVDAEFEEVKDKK

Row | Structure (SMILES) | Kd
1 | Cc1cc(C)n(CCCC(=O)O)n1 | > 4 mM (inactive)
2 | CC(C)(O)CC[C@@H](O)[C@](C)(O)C1CC[C@@]2(O)C3=CC(=O)C4C[C@@H](O)[C@@H](O)C[C@]4(C)C3CC[C@]12C (stereo partly drawn) | > 4 mM (inactive)
3 | CC1(c2ccncc2)NC(=O)NC1=O (stereo not drawn) | > 4 mM (inactive)
4 | Cc1occc1C(=O)Nc1ccc2c(c1)CCC2 | > 4 mM (inactive)
5 | Cc1cc(C)c2ccc[n+]([O-])c2c1O | > 4 mM (inactive)
6 | Cc1ccc(-c2nc(N)n(C(=O)c3cccnc3)n2)cc1 | > 4 mM (inactive)
7 | CCn1cnc(C(=O)NC)c1C(=O)NC | > 4 mM (inactive)
8 | Cn1nc(-c2ccccc2)cc1N | > 4 mM (inactive)
9 | Cc1nc(-c2cnccn2)sc1C(=O)O | > 4 mM (inactive)
10 | CC(=O)NCS(=O)(=O)c1ccc(C)cc1 | > 4 mM (inactive)
11 | COc1ccc(C(O)c2nccn2C)cc1 (stereo not drawn) | > 4 mM (inactive)
12 | Nc1cc2ccccc2cn1 | > 4 mM (inactive)
13 | CN(C)C1CCS(=O)(=O)C1 (stereo not drawn) | > 4 mM (inactive)
14 | Cc1scc(C(=O)Nn2cnnc2)c1-c1ccccc1 | > 4 mM (inactive)
15 | C/C1=C\CCC(=O)C2CC(C)(C)C2CC1 (stereo not drawn) | > 4 mM (inactive)
16 | O=S(=O)(c1ccc(F)c(Cl)c1)N1CCCC1 | > 4 mM (inactive)
17 | NC(=O)Cn1nc(-c2ccco2)ccc1=O | > 4 mM (inactive)
18 | O=c1ccc2ccccc2o1 | > 4 mM (inactive)
19 | Oc1ccc(/C=C/c2cc(O)cc(O)c2)cc1 | > 4 mM (inactive)
20 | Cn1c(-c2ccccc2F)n[nH]c1=S | > 4 mM (inactive)
21 | O=S1(=O)CCC(NCc2ccccc2)C1 (stereo not drawn) | > 4 mM (inactive)
22 | CC1=CC2C(CC1=O)C(C)=CCC2C(C)C (stereo not drawn) | > 4 mM (inactive)
23 | O=C1CS/C(=N/N=C/c2cccs2)N1 | > 4 mM (inactive)
24 | Cc1nc2ccc(NC(=O)N3CCSCC3)cc2s1 | > 4 mM (inactive)
25 | Cc1c(C(=O)O)cnn1-c1ccccc1 | > 4 mM (inactive)

Row | Structure (SMILES) | Kd
26 | Cc1ccccc1NC(=O)C1CC(=O)N=C(N)S1 (stereo not drawn) | > 4 mM (inactive)
27 | Cc1nn(C)c2sc(CO)cc12 | > 4 mM (inactive)
28 | O=S1(=O)CCC2CC=CCC21 (stereo not drawn) | > 4 mM (inactive)
29 | Cc1nn2c(-c3ccncc3)nnc2c2ccccc12 | > 4 mM (inactive)
30 | O=C(CSc1ncn[nH]1)c1ccccc1 | > 4 mM (inactive)
31 | Cc1cc(C)n(-c2nncn2N)n1 | > 4 mM (inactive)
32 | Nc1cccc(S(N)(=O)=O)c1 | > 4 mM (inactive)
33 | Nc1cc(=O)[nH]c(=S)n1-c1cccc(C(F)(F)F)c1 | > 4 mM (inactive)
34 | O=C(Cc1ccc(F)cc1)Nc1ncccn1 | > 4 mM (inactive)
35 | O=C(Nc1ccc(N2CCOCC2)cc1)C1CC1 | > 4 mM (inactive)
36 | CCOC(=O)c1c(C)cc(O)c(C)c1O | > 4 mM (inactive)
37 | O=C(O)c1ccc(CN2CCOCC2)cc1 | > 4 mM (inactive)
38 | Cc1ccc(S(=O)(=O)CC(N)=O)cc1 | > 4 mM (inactive)
39 | O=C(O)CNc1ncnc2nc[nH]c12 | > 4 mM (inactive)
40 | COc1cccc(C(=O)N2CCOCC2)c1 | > 4 mM (inactive)
41 | COc1ccc(C2(C)CC(=O)NC2=O)cc1 (stereo not drawn) | > 4 mM (inactive)
42 | Cc1nc2ccc(NC(=O)N3CCOCC3)cc2s1 | > 4 mM (inactive)
43 | OCCNc1nc2ccc(Cl)cc2[nH]1 | > 4 mM (inactive)
44 | CN(C)Cc1c(N)cccc1O | > 4 mM (inactive)
45 | O=S(=O)(c1cccc(Cl)c1)N1CCCC1 | > 4 mM (inactive)
46 | CCN1CCN(c2ncnc3c2nnn3C)CC1 | > 4 mM (inactive)
47 | CCn1ncc(Cl)c1C(=O)Nc1ccncc1 | > 4 mM (inactive)
48 | COc1ccc2c(c1OC)OC[C@@H](c1ccc(OC)c(OC)c1OC)C2 | > 4 mM (inactive)
49 | CCOC(=O)c1ccc2c(c1)nnn2C | > 4 mM (inactive)
50 | Nc1n[nH]c(=S)n1-c1ccccc1 | > 4 mM (inactive)

Row | Structure (SMILES) | Kd
51 | O=C(O)CCN1CCOCC1 | > 4 mM (inactive)
52 | Cc1ccc(NC(=O)C2CCCNC2=O)nc1 (stereo not drawn) | > 4 mM (inactive)
53 | c1coc(-c2nc(-c3ccncc3)no2)c1 | > 4 mM (inactive)
54 | NC(=O)Cn1nnc(-c2ccc(C(F)(F)F)cc2)n1 | > 4 mM (inactive)
55 | O=S(=O)(Cc1ccccc1Cl)Nc1ccccn1 | > 4 mM (inactive)
56 | S=C(NCC1CCCO1)NC1CC1 (stereo not drawn) | > 4 mM (inactive)
57 | CC1(C)C(=O)C=C[C@@]2(C)C1C=C[C@]1(C)C2CC[C@@]2(C)[C@H](c3ccoc3)OC(=O)C3OC321 (stereo partly drawn) | > 4 mM (inactive)
58 | CP(C)(=O)c1cccc(C(=O)O)c1 | > 4 mM (inactive)
59 | COC(=O)C1=CO[C@@H](O[C@@H]2O[C@H](CO)[C@@H](O)[C@H](O)[C@H]2O)[C@@H]2[C@@H](C)[C@@H](O)C[C@H]12 | > 4 mM (inactive)
60 | c1ccc(CN2CCC3(CC2)Nc2ccccc2CO3)cc1 | > 4 mM (inactive)
61 | COc1ccc2c(c1OC)C(=O)O[C@@H]2[C@@H]1c2cc3c(cc2CCN1C)OCO3 | > 4 mM (inactive)
62 | O=C(O)c1cccc2c1OCCO2 | > 4 mM (inactive)
63 | O=C1c2ccccc2C(=O)c2c(O)c(O)cc(O)c21 | > 4 mM (inactive)
64 | O=C(O)CCn1c(=O)oc2ccccc21 | > 4 mM (inactive)
65 | O=C1N=c2ccccc2=C1c1[nH]c(=S)[nH]c1O | > 4 mM (inactive)
66 | O=C(O)c1cnc2sc3ccccc3n2c1=O | > 4 mM (inactive)
67 | Cc1cc(-c2ccc(Cl)cc2)n2nc(N)nc2n1 | > 4 mM (inactive)
68 | Cn1cnc2cc(NC(=O)c3ccco3)ccc21 | > 4 mM (inactive)
69 | COc1cccc(-c2nc(-c3ccccn3)no2)c1OC | > 4 mM (inactive)
70 | Cc1cc(C)n2nc(N)nc2n1 | > 4 mM (inactive)
71 | Cc1cc(Oc2ccccc2)nc(N)n1 | > 4 mM (inactive)
72 | NC(=O)C(=O)NCc1ccc(Cl)cc1 | > 4 mM (inactive)
73 | NC(=O)CCS(=O)(=O)CCN1CCOCC1 | > 4 mM (inactive)
74 | CC(C)=CCc1c2c(c3occ(-c4ccc(O)c(O)c4)c(=O)c3c1O)C=CC(C)(C)O2 | > 4 mM (inactive)
75 | CC(=O)/C=C\[C@@H]1[C@@]2(C)CCCC(C)(C)C2CC[C@@]1(C)O (stereo partly drawn) | > 4 mM (inactive)

Row | Structure (SMILES) | Kd
76 | O=C(Cc1ccccc1)Nc1c[nH]c(=O)[nH]c1=O | > 4 mM (inactive)
77 | CSc1nnc2[nH]c(=O)cc(N)n12 | > 4 mM (inactive)
78 | Cc1csc(SCC(=O)N2CCCC2)n1 | > 4 mM (inactive)
79 | CNC(=O)c1cccc(NC(=S)NC)c1 | > 4 mM (inactive)
80 | O=C(CSc1ccnc(=O)[nH]1)NCc1ccccc1 | > 4 mM (inactive)
81 | Cc1cc(C(=O)N2CCOCC2)c(C)o1 | > 4 mM (inactive)
82 | CNC(=O)Oc1ccc2c(c1)[C@]1(C)CCN(C)[C@@H]1N2C | > 4 mM (inactive)
83 | O=C(CN1C(=O)c2cccc3cccc(c23)C1=O)NO | > 4 mM (inactive)
84 | O=C(Nc1ccccc1Cl)c1cnccn1 | > 4 mM (inactive)
85 | Cn1[nH]c2nc3[nH]n(C)c(=O)c3c(-c3ccccc3)c2c1=O | > 4 mM (inactive)
86 | O=S1(=O)CCC(N2CCCCC2)C1 (stereo not drawn) | > 4 mM (inactive)
87 | Cc1ccc(C(=O)Nc2ccncc2)o1 | > 4 mM (inactive)
88 | COc1ccc(/C=C/c2cc(O)cc(O)c2)cc1 | > 4 mM (inactive)
89 | Cc1cc(C)n2nc(Cc3ccccc3)nc2n1 | > 4 mM (inactive)
90 | NCc1ccc(S(N)(=O)=O)cc1 | > 4 mM (inactive)
91 | Cn1c(=O)cc(N2CCCCC2)[nH]c1=O | > 4 mM (inactive)
92 | CN1CCOc2cc(C(=O)O)ccc21 | > 4 mM (inactive)
93 | Cc1nc2nc(COc3ccccc3)nn2c(C)c1Cl | > 4 mM (inactive)
94 | Cc1nnc(NCc2ccc3c(c2)OCO3)[nH]c1=O | > 4 mM (inactive)
95 | O=C(Cc1c(F)cccc1Cl)Nc1ccncc1 | > 4 mM (inactive)
96 | CC(C)CC(=O)Nc1c[nH]c(=O)[nH]c1=O | > 4 mM (inactive)
97 | NCCc1cnc[nH]1 | > 4 mM (inactive)
98 | CC(C)(C)NC(=O)CN1C(=O)c2ccccc2S1(=O)=O | > 4 mM (inactive)
99 | COc1ccc(/C=C2/NC(=S)NC2=O)cc1 | > 4 mM (inactive)
100 | Nc1ccc(Cc2ccncc2)cc1 | > 4 mM (inactive)

Row | Structure (SMILES) | Kd
101 | CC(=O)Nc1ccc(S(=O)(=O)Nc2cc(C)on2)cc1 | > 4 mM (inactive)
102 | Nc1ccc2nccnc2c1 | > 4 mM (inactive)
103 | O=C1CSC(=S)N1Cc1cccnc1 | > 4 mM (inactive)
104 | O=C(c1ccco1)N1CCN(Cc2cccc(F)c2)CC1 | > 4 mM (inactive)
105 | Cc1noc(C)c1C(=O)Nc1ccccc1-c1ccccc1 | > 4 mM (inactive)
106 | O=C(NCc1ccccc1Br)c1cccs1 | < 0.2 mM
107 | Cn1c(=O)n(CC(=O)Nc2cccnc2)c2ccccc21 | > 4 mM (inactive)
108 | COC(=O)CCSCC(=O)Nc1nccs1 | > 4 mM (inactive)
109 | CCCNC(CC(=O)Nc1cccnc1)C(=O)O (stereo not drawn) | > 4 mM (inactive)
110 | Cc1cccc(C)c1NC(=O)/C=C/C(=O)O | > 4 mM (inactive)
111 | O=C(O)c1ccc(CN2CCCCC2)o1 | > 4 mM (inactive)
112 | NC(=O)CSc1nc2ncnc(N)c2[nH]1 | > 4 mM (inactive)
113 | C=C1CCC2[C@](C)(CO)[C@H](O)CC[C@@]2(C)[C@@H]1C/C=C1/C(=O)OC[C@H]1O (stereo partly drawn) | > 4 mM (inactive)
114 | NCC(=O)c1ccccc1 | > 4 mM (inactive)
115 | Clc1ccccc1OCCn1ccnc1 | > 4 mM (inactive)
116 | O=C1CCCc2c1nc(-c1ccccc1)n2O | > 4 mM (inactive)
117 | COc1cccc(NC(=O)c2ncn[nH]2)c1 | > 4 mM (inactive)
118 | COc1nc(C)ccc1-c1noc(-c2ccncc2)n1 | > 4 mM (inactive)
119 | CCCc1ncc(C(O)c2cccc3ccccc23)n1C (stereo not drawn) | > 4 mM (inactive)
120 | CC1CC[C@]2(NC1)O[C@H]1CC3C4CC[C@H]5C[C@@H](O)CC[C@]5(C)C4CC[C@]3(C)[C@H]1[C@@H]2C (stereo partly drawn) | > 4 mM (inactive)
121 | O=C(Nc1nnc(-c2ccccc2Cl)o1)c1ccco1 | > 4 mM (inactive)
122 | Nc1ccc(CN2CCOCC2)cc1 | > 4 mM (inactive)
123 | OCC1CCCC1O (stereo not drawn) | > 4 mM (inactive)
